This is an account of results in publication PMC7753147, “High-throughput determination of protein affinities using unmodified peptide libraries in nanomolar scale” (iScience, 2020).

The test system of one assay is gephE. The assay is described as follows: µSPOT peptide microarray binding assay with recombinant gephE. The note with it: normalized to most prominent spot, n = 2 array-internal duplicate.
A further assay concerns native geph. The assay is described as follows: µSPOT peptide microarray binding assay with native geph from mouse brain lysate. The note with it: normalized to most prominent spot, n = 2 array-internal duplicate.
[1] abbreviates: overlapping GABAAR α3 peptide library on µSPOT array, 20 nM gephE.
Setting [2] is: overlapping GABAAR α3 peptide library on µSPOT array, 6% mouse brain lysate.
[3] abbreviates: overlapping GlyR β peptide library on µSPOT array, 50 nM gephE, anti-gephyrin 3B11/HRP chemiluminescence.
Setting [4] is: overlapping GlyR β peptide library on µSPOT array, 3% mouse brain lysate.

As to “AAPSASSTPTAIASPKATYV [GABAAR α3 residues 420-439, µSpot library]”, the “gephE Binding Intensity [norm.]” value with gephE (setting [1]) was determined as 0.038 norm. Also, the “Native geph Binding Intensity [norm.]” value in the assay with native geph (setting [2]) is 0.080 norm.

For the sequence “ADGKGGNAAKKNTVNGTGTP [Glycine receptor subunit beta_009]”, the “gephE Binding Intensity [norm.]” value with gephE (setting [3]) amounted to 0.015 norm. Moreover, in the assay on native geph (setting [4]), the “Native geph Binding Intensity [norm.]” value is on record as 0.067 norm.

Take “AEQADGKGGNAAKKNTVNGT [Glycine receptor subunit beta_008, GlyR β residues 370-389]”: the “gephE Binding Intensity [norm.]” value with gephE (setting [3]) is 0.023 norm. Also, the “Native geph Binding Intensity [norm.]” value in the assay on native geph (setting [4]) came to 0.065 norm.

As to “APTKKNTTFNIVGTTYPINL [GABAAR α3 residues 387-406, µSpot library]”, in the assay on gephE (setting [1]), the “gephE Binding Intensity [norm.]” value was found to be 1.000 norm. Besides, the “Native geph Binding Intensity [norm.]” value with native geph (setting [2]) stood at 0.767 norm.

As for “ASPKATYVQDSPAETKTYNS [GABAAR α3 residues 432-451, µSpot library]”, the “gephE Binding Intensity [norm.]” value in the assay with gephE (setting [1]) is listed as 0.020 norm. The “Native geph Binding Intensity [norm.]” value with native geph (setting [2]) amounted to 0.050 norm.

In the case of “CTSKSDLRSNDFSIVGSLPR [Glycine receptor subunit beta_021, GlyR β residues 409-428]”, the “gephE Binding Intensity [norm.]” value in the assay on gephE (setting [3]) was 0.645 norm. Also, the “Native geph Binding Intensity [norm.]” value in the assay with native geph (setting [4]) is listed as 0.379 norm.

On to “DCYGKPIEVNNGLGKPQAKN [Glycine receptor subunit beta_030, GlyR β residues 436-455]”, for which the “gephE Binding Intensity [norm.]” value in the assay with gephE (setting [3]) amounted to 0.049 norm. Further, the “Native geph Binding Intensity [norm.]” value with native geph (setting [4]) is given as 0.093 norm.

“EAEKARIAKAEQADGKGGNA [Glycine receptor subunit beta_005, GlyR β residues 361-380]”: in the assay with gephE (setting [3]), the “gephE Binding Intensity [norm.]” value was 0.024 norm. For the same sequence, the “Native geph Binding Intensity [norm.]” value with native geph (setting [4]) came to 0.113 norm.

As to “EFSTISKSAAAPSASSTPTA [GABAAR α3 residues 411-430, µSpot library]”, the “gephE Binding Intensity [norm.]” value in the assay with gephE (setting [1]) came out at 0.028 norm. Besides, in the assay on native geph (setting [2]), the “Native geph Binding Intensity [norm.]” value worked out at 0.127 norm.

As for “FELSNYDCYGKPIEVNNGLG [Glycine receptor subunit beta_028, GlyR β residues 430-449]”, the “gephE Binding Intensity [norm.]” value in the assay with gephE (setting [3]) came to 0.112 norm. Besides, the “Native geph Binding Intensity [norm.]” value with native geph (setting [4]) is 0.180 norm.

Take “GKPIEVNNGLGKPQAKNKKP [Glycine receptor subunit beta_031, GlyR β residues 439-458]”: in the assay with gephE (setting [3]), the “gephE Binding Intensity [norm.]” value is recorded as 0.036 norm. In the assay with native geph (setting [4]), the “Native geph Binding Intensity [norm.]” value turned out to be 0.069 norm.

For “GSLPRDFELSNYDCYGKPIE [Glycine receptor subunit beta_026, GlyR β residues 424-443]”, in the assay with gephE (setting [3]), the “gephE Binding Intensity [norm.]” value is 0.132 norm. The “Native geph Binding Intensity [norm.]” value with native geph (setting [4]) came out at 0.134 norm.

“GTGTPVHISTLQVGETRCKK [Glycine receptor subunit beta_014, GlyR β residues 388-407]”: the “gephE Binding Intensity [norm.]” value in the assay with gephE (setting [3]) is 0.044 norm. Besides, the “Native geph Binding Intensity [norm.]” value with native geph (setting [4]) was 0.068 norm.

Turning to “GTTYPINLAKDTEFSTISKS [GABAAR α3 residues 399-418, µSpot library]”, the “gephE Binding Intensity [norm.]” value with gephE (setting [1]) was 0.030 norm. Besides, the “Native geph Binding Intensity [norm.]” value in the assay on native geph (setting [2]) was 0.098 norm.

Turning to “HISTLQVGETRCKKVCTSKS [Glycine receptor subunit beta_016, GlyR β residues 394-413]”, the “gephE Binding Intensity [norm.]” value with gephE (setting [3]) is on record as 0.042 norm. Further, in the assay with native geph (setting [4]), the “Native geph Binding Intensity [norm.]” value turned out to be 0.042 norm.

Turning to “IAKAEQADGKGGNAAKKNTV [Glycine receptor subunit beta_007]”, the “gephE Binding Intensity [norm.]” value in the assay with gephE (setting [3]) is 0.025 norm. For the same sequence, the “Native geph Binding Intensity [norm.]” value with native geph (setting [4]) is reported as 0.066 norm.

“IEVNNGLGKPQAKNKKPPPA [Glycine receptor subunit beta_032, GlyR β residues 442-461]”: in the assay with gephE (setting [3]), the “gephE Binding Intensity [norm.]” value is listed as 0.009 norm. Also, in the assay on native geph (setting [4]), the “Native geph Binding Intensity [norm.]” value turned out to be 0.075 norm.

On to “KARIAKAEQADGKGGNAAKK [Glycine receptor subunit beta_006, GlyR β residues 364-383]”, for which the “gephE Binding Intensity [norm.]” value with gephE (setting [3]) stood at 0.040 norm. Besides, the “Native geph Binding Intensity [norm.]” value with native geph (setting [4]) stood at 0.091 norm.

For the sequence “KATYVQDSPAETKTYNSVSK [GABAAR α3 residues 435-454, µSpot library]”, the “gephE Binding Intensity [norm.]” value in the assay on gephE (setting [1]) is 0.070 norm. In addition, the “Native geph Binding Intensity [norm.]” value with native geph (setting [2]) is on record as 0.059 norm.

As to “KDTEFSTISKSAAAPSASST [GABAAR α3 residues 408-427, µSpot library]”, the “gephE Binding Intensity [norm.]” value with gephE (setting [1]) is on record as 0.020 norm. The “Native geph Binding Intensity [norm.]” value in the assay on native geph (setting [2]) turned out to be 0.136 norm.

In the case of “KGGNAAKKNTVNGTGTPVHI [Glycine receptor subunit beta_010]”, the “gephE Binding Intensity [norm.]” value in the assay on gephE (setting [3]) was 0.024 norm. Moreover, the “Native geph Binding Intensity [norm.]” value in the assay with native geph (setting [4]) is 0.077 norm.

“KKKTPAAPTKKNTTFNIVGT [GABAAR α3 residues 381-400, µSpot library]”: the “gephE Binding Intensity [norm.]” value in the assay on gephE (setting [1]) was determined as 0.053 norm. Also, the “Native geph Binding Intensity [norm.]” value in the assay on native geph (setting [2]) is reported as 0.115 norm.

“KKNTTFNIVGTTYPINLAKD [GABAAR α3 residues 390-409, µSpot library]”: in the assay on gephE (setting [1]), the “gephE Binding Intensity [norm.]” value is listed as 0.443 norm. Further, in the assay on native geph (setting [2]), the “Native geph Binding Intensity [norm.]” value came to 0.243 norm.

For “KKNTVNGTGTPVHISTLQVG [Glycine receptor subunit beta_012]”, the “gephE Binding Intensity [norm.]” value in the assay with gephE (setting [3]) is recorded as 0.023 norm. Further, the “Native geph Binding Intensity [norm.]” value in the assay with native geph (setting [4]) is 0.085 norm.

“KKVCTSKSDLRSNDFSIVGS [Glycine receptor subunit beta_020, GlyR β residues 406-425]”: in the assay on gephE (setting [3]), the “gephE Binding Intensity [norm.]” value was 0.393 norm. The “Native geph Binding Intensity [norm.]” value in the assay with native geph (setting [4]) is recorded as 0.309 norm.

Regarding “KKVPEALEMKKKTPAAPTKK [GABAAR α3 residues 372-391, µSpot library]”, the “gephE Binding Intensity [norm.]” value in the assay with gephE (setting [1]) came to 0.038 norm. For the same sequence, in the assay on native geph (setting [2]), the “Native geph Binding Intensity [norm.]” value is given as 0.081 norm.

Take “KNKKPPPAKPVIPTAAKRID [Glycine receptor subunit beta_036, GlyR β residues 454-473]”: the “gephE Binding Intensity [norm.]” value in the assay on gephE (setting [3]) was 0.016 norm. Moreover, the “Native geph Binding Intensity [norm.]” value in the assay with native geph (setting [4]) came out at 0.068 norm.

For the sequence “KPPPAKPVIPTAAKRIDL [Glycine receptor subunit beta_037, GlyR β residues 457-474]”, in the assay with gephE (setting [3]), the “gephE Binding Intensity [norm.]” value is reported as 0.037 norm. Also, in the assay with native geph (setting [4]), the “Native geph Binding Intensity [norm.]” value amounted to 0.075 norm.

As for “KRVEAEKARIAKAEQADGKG [Glycine receptor subunit beta_004]”, in the assay with gephE (setting [3]), the “gephE Binding Intensity [norm.]” value is listed as 0.052 norm. Also, the “Native geph Binding Intensity [norm.]” value in the assay with native geph (setting [4]) is reported as 0.117 norm.

For the sequence “KSAAAPSASSTPTAIASPKA [GABAAR α3 residues 417-436, µSpot library]”, in the assay with gephE (setting [1]), the “gephE Binding Intensity [norm.]” value worked out at 0.030 norm. For the same sequence, the “Native geph Binding Intensity [norm.]” value in the assay on native geph (setting [2]) turned out to be 0.103 norm.

“KSDLRSNDFSIVGSLPRDFE [Glycine receptor subunit beta_022, GlyR β residues 412-431]”: the “gephE Binding Intensity [norm.]” value in the assay on gephE (setting [3]) came to 0.972 norm. The “Native geph Binding Intensity [norm.]” value in the assay with native geph (setting [4]) is 0.945 norm.

Consider “LEMKKKTPAAPTKKNTTFNI [GABAAR α3 residues 378-397, µSpot library]”, for which the “gephE Binding Intensity [norm.]” value in the assay on gephE (setting [1]) is 0.059 norm. For the same sequence, the “Native geph Binding Intensity [norm.]” value with native geph (setting [2]) stood at 0.085 norm.
